Measurements taken from patent US20250345426A1, “METHODS FOR MAKING AND USING THERAPEUTIC CELLS” (THE REGENTS OF THE UNIVERSITY OF CALIFORNIA, priority 2022, published 2025).

What was measured:
[1] = test system: rituximab CAR-T cells; assay: T-cell subtype distribution (CD45RO/CD62L staining), rituximab CAR-T cells; type: cell-based, human; conditions: 5 days of pharmacological modulation, vs vehicle
Description: FIG. 1A-G. Pharmacological inhibition of PI3K/AKT pathway modulates antigen-independent CAR-T cell activation. (A) Table of pharmacological inhibitors used during ex vivo expansion of rituximab CAR-T cells (left). Simplified schematic of the PI3K/AKT signaling axis where black arrows represent activation (right). (B) Activation marker expression by CAR^+ T cells in the absence of antigen stimulation after 5 days of pharmacological modulation. Data bars indicate the means of technical triplicates±1 S.D. The bars in FIG. 1B represent data from, untreated, vehicle, CAL-101, AZD5363, Rapamycin, MYCi975, and Betulin, respectively, from left to right. (C) TNF-α production CAR^+ T cells in the absence of antigen stimulation as quantified by intracellular flow cytometry. Data bars indicate the means of technical triplicates±1 S.D. The bars in FIG. 1B and FIG. 1C represent data from, untreated, vehicle, CAL-101, AZD5363, Rapamycin, MYCi975, and Betulin, respectively, from left to right. (D) Proliferation of CAR^+ T cells stained with CellTrace Violet (CTV) dye was assayed after a 4-day culture in the absence of target cells or exogenous cytokines. […] Statistical significance in panels B, C, and D was determined by two-tailed Student's t test with Sidak correction for multiple comparisons. * p<0.05, ** p<0.01, *** p<0.001, n.s. not statistically significant. […]
Antibody staining for flow-cytometry analysis. EGFRt expression was measured with biotinylated cetuximab (Eli Lilly; biotinylated in-house), followed by PE-conjugated streptavidin (Jackson ImmunoResearch #016-110-084). CAR expression was quantified by surface epitope staining using anti-Fc (Alexa Fluor 488, Jackson ImmunoResearch #709-546-098). Antigen-independent activation-marker expression of CAR-T cells was evaluated by antibody staining for CD137 (PE/Cy7, clone 4B4-1, BioLegend #309818), and PD-1 (FITC, clone EH12.2H7, BioLegend #329904) on Days 18 (i.e., 18 days after Dynabead addition and 11 days after Dynabead removal) and after 5-6 days of inhibitor culture (FIG. 1, FIG. 3). […]

[2] = test system: Raji tumor xenografts; assay: Raji xenograft in NSG mice treated with inhibitor-preconditioned rituximab CAR-T cells; type: in vivo; conditions: NSG mice, Raji i.v., preconditioned rituximab CAR-T cells, bioluminescence, vs vehicle control
Protocol: FIG. 2A-C. […] (A) Tumor signal (in photons/sec/cm^2/sr) in individual animals as quantified by bioluminescence imaging. […] Statistical significance was determined by Mann-Whitney U test with Holm-Sidak correction for multiple comparisons. * p<0.05, n.s. not statistically significant. (B) Kaplan-Meier survival curve (top) and table of median survival period in days (bottom). (C) Frequency of human CD45+EGFRt+ cell in peripheral blood collected from mice on day 8 after first dose of T-cell infusion. Statistical significance was determined by two-tailed Student's t test with Sidak correction for multiple comparisons. * p<0.05, ** p<0.01.
In vivo studies. Six- to eight-week-old NOD/SCID/IL-2Rγ^null (NSG) mice were obtained from UCLA Department of Radiation and Oncology. The protocol was approved by UCLA Institutional Animal Care and Used Committee. […] Details of the dose and timing of tumor injection, T-cell injection, and tumor re-challenge are indicated in the text and figures. Tumor progression/regression was monitored with an IVIS Illumina III LT Imaging System (PerkinElmer). Blood samples were harvested via retro-orbital bleeding 3 days post T-cell injection and every 10-13 days thereafter. Mice were euthanized at the humane endpoint. Bone marrow, spleen and liver were collected after euthanasia. Tissues were ground and passed through a 100-μm filter followed by red-blood-cell lysis prior to flow-cytometry analysis.

[3] = test system: Raji target cells; assay: 24-hr lysis assay of inhibitor-treated Leu16 CAR-T cells against Raji; type: cell-based; conditions: three E:T ratios, vs vehicle-treated
Description: FIG. 4A-C. Characterization of pharmacologically treated Leu16 CAR-T cells in vitro. (A) TNF-α production CAR+ T cells in the absence of antigen stimulation as quantified by intracellular flow cytometry. Data bars indicate the means of technical triplicates ±1 S.D. ns not statistically significant. (B) Leu16 CAR-T cell fold expansion after 6 days of inhibitor culture was tracked. The bars in FIGS. 4A and 4B, represent data from, EGFRt, Leu16-28z (vehicle), Leu16-28z (MYCi975), Leu16-28z (Betulin), and Leu16-28z (Rapamycin), respectively, from left to right. (C) A 24-hr lysis assay of CAR-T cells against Raji target cells at three effector-to-target (E:T) ratios. Data bars indicate the means of technical triplicates±1 S.D. Percent lysis was normalized to cell counts in target-only wells.
Cytotoxicity assay with Raji cells. Raji cells were seeded at 2×10^5 cells/well in 96-well U-bottom plate and coincubated with CAR^+ T cells at 1:1, 3.33:1, and 10:1 E:T ratios. Untransduced T cells were added to wells as needed to normalize for differing transduction efficiencies and ensure the total number of T cells per well was consistent throughout. Remaining target cells were quantified by MACSQuant VYB flow cytometer 24-hr post co-incubation.

## C=C(C)[C@@H]1CC[C@]2(CO)CC[C@]3(C)[C@H](CC[C@@H]4[C@@]5(C)CC[C@H](O)C(C)(C)[C@@H]5CC[C@]43C)[C@@H]12 [betulin, Betulin]
[1]
  fraction of naïve and stem-cell memory T (Tn/scm) cells / T-cell differentiation: accelerated T-cell differentiation
[2]
  tumor outgrowth / tumor progression: accelerated tumor progression
[3]
  lysis of Raji tumor cells: clustered together

## MYCi975
[1]
  fraction of naïve and stem-cell memory T (Tn/scm) cells / T-cell differentiation: accelerated T-cell differentiation
[2]
  tumor outgrowth / tumor progression: accelerated tumor progression
[3]
  lysis of Raji tumor cells: clustered together
